Laboratory results reported in paper PMC12935919 (Frontiers in Pharmacology, 2026).
No end group written: not given here.

How the values were obtained:
[1] = test system: Fc gamma-tagged myostatin/GDF-8; test: ELISA-based receptor binding assay; parameters: species or system human
Protocol: Plates were washed with PBST and blocked with 3% (w/v) BSA for 2 h at room temperature. They were then incubated for 2 h with Fc gamma-tagged myostatin/GDF-8 (Sino Biological, #50441-M01H) diluted in PBST. After another PBST wash, plates were treated with HRP-linked Anti-IgG Fc gamma (CST, #32935S, 1:1,000) for 2 h. Finally, color was developed with TMB (Sigma, #T0440), the reaction stopped with 1 M H2SO4, and absorbance was measured at 450 nm.

C2C12 myotubes = test: DEX-induced muscle atrophy model, Western blot; assay type: cell-based; conditions: 10 μM DEX 24 h, alone or with 10 or 100 μM Myoki
Protocol: (§1) To induce C2C12 myotube differentiation, myoblasts were seeded in 6-well plates at 5 × 10^5 cells per well. Once reaching 90% confluency, they were cultured in DMEM supplemented with 2% horse serum (Thermo Fisher Scientific) and 1% penicillin-streptomycin. […] Differentiation was observed using an optical microscope (LEICA, 100×). Myotube morphology (length and diameter) was quantified in ImageJ (NIH) using the same images: myotube length was measured by tracing the long axis of each myotube (end-to-end), and myotube diameter was measured as the short-axis width at three positions along each myotube; the mean of the three width values was recorded as the diameter. For each experimental group, three randomly captured images (fields) were analyzed, and at least 15–20 myotubes per image were quantified under identical imaging settings.
Treated C2C12 cells (5 × 10^5 cells/well) were harvested in lysis buffer (Sigma-Aldrich, 2910) and centrifuged at 12,000 g for 10 min; proteins in the supernatant were collected. Protein concentrations were measured using the BCA Protein Assay Kit (Thermo Fisher Scientific). Each 20 μg sample was separated using 10% SDS–PAGE and transferred onto a polyvinylidene fluoride membrane (Millipore, Burlington, MA, USA). Non-specific binding was blocked with 5% non-fat dry milk for 1 h. The membranes were incubated overnight with primary antibodies: Anti-Myf5 (Abcam, ab125078), Anti-Myf6 (Abcam, ab182842), Anti-MyoD (Santa Cruz, sc-377460), Anti-MyoG (Santa Cruz, sc-52903), Anti-α-actinin (Santa Cruz, sc-17829), Anti-MYH3 (Santa Cruz, sc-53091), Anti-p-mTOR (Ser2448) (CST, #5536), Anti-p-Akt (Ser473) (CST, #9271), Anti-p-p70 S6 Kinase (Thr389) (CST, #9205), Anti-myostatin (Abcam, ab124721), Anti-atrogin-1/MAFbx (Santa Cruz, sc-166806), and Anti-MuRF1 (Santa Cruz, sc-398608). Membranes were then incubated for 1 h with HRP-conjugated secondary antibodies. Blot images were captured with the ECL system (Amersham, UK) and quantified using ImageJ.

SAMP8 mice [2] = test: Sirius Red collagen deposition in muscle; assay type: in vivo, mouse; conditions: normalized to SAMR1 = 100%, oral gavage 45 weeks, 20 mg in 200 µL PBS, n = 5, mean ± SD
Protocol: (§2) Eight week old male senescence-accelerated mouse-prone 8 (SAMP8)/Ta Slc and senescence-accelerated mouse-resistant 1 (SAMR1)/Ta Slc mice (weighing 30 ± 2 g) were purchased from Central Lab Animal Inc. (Seoul, Korea) and housed at 24 °C in cages under a 12/12 h light/dark cycle with ad libitum access to food and water. […] Mice in all groups were dosed once daily by oral gavage for 45 weeks. […] This study was approved by the Institutional Animal Care and Use Committee (approval number CG-R22-001).
(§3) Quadriceps (Quad) and gastrocnemius (Gas) muscle tissues were harvested and immersion-fixed in 10% neutral buffered formalin at 4 °C for 24 h. Following fixation, the tissues were dehydrated through a graded series of ethanol, cleared in xylene, and embedded in paraffin. Paraffin-embedded tissues were sectioned at a thickness of 5 μm. The tissue sections mounted on slides were deparaffinized, washed, and stained with hematoxylin (Dako, S3309) and eosin (Thermo Fisher Scientific, #6766007) (H&E). To assess the degree of muscle fibrosis, they were also stained using a Sirius Red Stain Kit (Abcam, ab150681) according to the manufacturer’s instructions. […] For each animal, three images were randomly selected from the stained sections, and the total stained area per image, rather than individual muscle fibers, was quantified using ImageJ software.

SAMP8 mice [3] = test: H&E myofiber area in muscle; assay type: in vivo, mouse; conditions: oral gavage once daily 45 weeks, 20 mg Myoki in 200 µL PBS, n = 5, vs SAMP8 group
Protocol: as §2, §3

SAMP8 mice [4] = test: Immunofluorescence in skeletal muscle tissues; assay type: in vivo, mouse; conditions: oral gavage 45 weeks, 20 mg in 200 µL PBS
Protocol: as §2
Muscle tissues fixed in formalin were sectioned into 5-μm paraffin section. They were treated with heat-mediated antigen retrieval in TRS buffer TRS buffer (pH 6.2) and peroxide-blocked using reagent (Epredia, TA-125-PBQ). Primary antibodies—anti-myostatin (Abcam, ab124721), anti-atrogin-1/MAFbx (Santa Cruz, sc-166806), and anti-fast MyHC (Abcam, ab91506)—were diluted 1:250 or 1:500 in anti-body diluent (GBI Labs, E09-300) and incubated overnight at 4 °C. […] Nuclei were stained with 4′,6-diamidino-2-phenylindole (DAPI; blue) for 20 min, mounted using Aqua Mounting Media (Biomeda), and imaged at 200× with a confocal fluorescence microscope (LEICA, Wetzlar, Germany). Fluorescence intensities were quantified using ImageJ software, and results were statistically analyzed.

[5] = test system: patients with muscle atrophy (ICD-10-CM code: M62.5); test: Clinical trial: safety, treatment emergent adverse events; assay type: in vivo, human; conditions: 12 weeks, 200 mg/day, N=40
Excerpt: All participants provided written informed consent prior to any study procedures. Key eligibility criteria included adults aged ≥18 years with low muscle mass by DEXA (men: <7.0 kg/m^2; women: <5.4 kg/m^2) and either low handgrip strength (men: <28 kg; women: <18 kg) or low physical performance (6-m walk speed <1.0 m/s). Major exclusion criteria included uncontrolled systemic disease, musculoskeletal or neurological disorders, recent anabolic steroid use, and concomitant medications known to affect protein metabolism; full inclusion and exclusion criteria are provided in Supplementary Table S1. Of 89 patients screened, seven were screen failures and two withdrew prior to randomization; 80 eligible participants were enrolled and proceeded to the baseline/randomization visit (mean age 38.83 ± 9.91 years; range 23–69).
The study was double-blind; participants, investigators, and study staff were unaware of treatment allocation throughout the trial.
Efficacy endpoints were evaluated as changes from baseline to Week 12; efficacy analyses were conducted in the per-protocol population, and safety analyses included all randomized participants who received at least one dose of study product (Supplementary Figure S2). Of 80 randomized participants, 75 completed the study.

C2C12 cells = test: Myotube morphology during differentiation (microscopy, ImageJ); assay type: cell-based
Protocol: as §1

EAEYEHL-OH [Myoki]
binding to myostatin ([1]; Myoki coated at 125, 250, 500, and 1,000 μM): directly and concentration-dependently binds to myostatin
myostatin binding compared to the control ([1]; Myoki-coated plates, ≥62.5 μM, absorbance 450 nm): more than 150%
MuRF1 expression (C2C12 myotubes): significantly and dose-dependently reduced
atrogin-1/MAFbx expression (C2C12 myotubes): significantly and dose-dependently reduced
expression levels of differentiated muscle fiber structural proteins (C2C12 myotubes): dose-dependently restored toward control levels
phosphorylation levels of muscle growth signaling proteins (Akt, mTOR, p70S6K) (C2C12 myotubes): dose-dependently restored toward control levels
collagen deposition, quadriceps (SAMP8 mice [2]; untreated SAMP8 185% ± 10.61%, difference not statistically significant): 151% ± 28.82%
collagen deposition, gastrocnemius (SAMP8 mice [2]; untreated SAMP8 291% ± 19.72%): 194% ± 22.84%
myofiber area, gastrocnemius (SAMP8 mice [3]): significantly increased
myofiber area, quadriceps (SAMP8 mice [3]): significantly increased
fast-MyHC fluorescence intensity (SAMP8 mice [4]; n = 5): restored toward SAMR1 levels
atrogin-1/MAFbx fluorescence intensity, gastrocnemius (SAMP8 mice [4]; n = 5, vs SAMP8 group): significantly decreased
TEAEs related to the study product [5]: No TEAEs were assessed as related to the study product
serious TEAEs [5]: no serious TEAEs were reported
severity and outcome of TEAEs [5]: all TEAEs were mild in severity and resolved
increase in myotube length compared to the control (C2C12 cells; Day 6, 100 μM, differentiation medium (2% horse serum), mean ± SD): 200% ± 33.88%
myotube length (C2C12 cells; Days 0-6, Myoki 1, 10 and 100 μM): increased concentration- and time-dependently
